# Data: PubChem BioAssay (NCI)
#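 Each compound was tested at five concentrations against cells in 96-well plates for 48 hours. Abbreviation: GI50, concentration required for 50% inhibition of growth. TGI denotes the concentration required for complete inhibition of growth.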
# Columns and labels:
# Assay in all cases: NCI anticancer screen, dose series, 48 h
# [1] = test system: UACC-257 melanoma
# [2] = test system: OVCAR-8 ovarian
# [3] = test system: K-562 leukemia
# [4] = test system: EKVX NSCLC
# [5] = test system: HT29 colon
# [6] = test system: SF-268 CNS
# [7] = test system: SF-539 CNS
# [8] = test system: M14 melanoma
# [9] = test system: MCF7 breast
# [10] = test system: MDA-MB-231 breast
Structure (SMILES),TGI [1] [µM],TGI [2] [µM],TGI [3] [µM],TGI [4] [µM],TGI [5] [µM],TGI [6] [µM],TGI [7] [µM],TGI [8] [µM],GI50 [1] [µM],GI50 [3] [µM],GI50 [4] [µM],GI50 [9] [µM],TGI [9] [µM],GI50 [6] [µM],GI50 [7] [µM],GI50 [8] [µM],TGI [10] [µM],GI50 [2] [µM],GI50 [5] [µM],GI50 [10] [µM]
O=C(N/N=C(/c1nc2ccc(Cl)cc2[nH]c1=O)C(O)c1ccc(Cl)cc1Cl)c1ccncc1 (stereo not drawn),> 100,> 100,> 100,> 100,> 100,> 100,> 100,> 100,–,–,–,–,–,–,–,–,–,–,–,–
CCOC(=O)c1sc(-c2ccc(OS(=O)(=O)c3cccs3)c(C=O)c2)nc1C,6.35,–,> 100,5.4,–,4.42,3.42,3.86,2.51,0.574,1.88,1.88,4.51,1.91,1.82,1.9,–,–,–,–
O=C(c1ccccc1)C1C(C(=O)c2ccccc2)N1Cc1ccccc1 (stereo not drawn),> 100,> 100,> 100,> 100,> 100,> 100,–,> 100,–,–,–,–,–,–,–,–,> 100,–,–,–
Cn1cnc([N+](=O)[O-])c1Sc1ccccn1,> 100,> 100,> 100,> 100,> 100,> 100,> 100,> 100,–,–,–,–,–,–,–,–,–,–,–,–
CC1(C)CCC[C@]23C(=O)O[C@](O)(C(=O)C4=C[C@@](C)(/C=C/CCCc5ccc6ccc7cccc8ccc5c6c78)CC[C@@]42O)[C@@H]13,0.586,1.15,3.19,0.485,0.603,0.498,0.322,0.409,0.224,0.3,0.216,–,–,0.208,0.17,0.196,0.431,0.25,0.235,0.197
COC(=O)c1c[nH]c(=O)[nH]c1=O,> 100,> 100,> 100,> 100,–,> 100,> 100,> 100,–,–,–,–,> 100,–,–,–,–,–,–,–
NC(=O)CCC(NC(=O)OCc1ccccc1)C(=O)OCC(=O)c1ccccc1 (stereo not drawn),> 100,–,> 100,> 100,> 100,> 100,> 100,–,> 100,> 100,> 100,> 100,> 100,> 100,> 100,–,> 100,–,> 100,> 100
CCC1C(C)c2c([nH]c3ccccc23)C2C(=O)N(c3ccccc3)C(=O)C21 (stereo not drawn),–,28.7,44.3,38.3,28.2,62.5,34.5,33.4,–,–,–,–,–,–,–,–,–,–,–,–
O=NC1c2cccc3cccc(c23)C1N=O (stereo not drawn),27.5,6.65,11.7,6.76,23.7,26.3,26.6,27.3,–,–,–,–,25.8,–,–,–,–,–,–,–
Cc1ccc(S(=O)(=O)N(/N=C(\N)Oc2ccc(Cl)cc2)C(=N)Oc2ccc(Cl)cc2)cc1,> 100,> 100,> 100,> 100,> 100,> 100,> 100,> 100,–,–,–,–,–,–,–,–,–,–,–,–
Cl.[Pt].[c-]1ccccc1-c1ccccn1.c1ccc(P(c2ccccc2)C([PH+](c2ccccc2)c2ccccc2)[PH+](c2ccccc2)c2ccccc2)cc1,38,> 100,13.6,62.2,8.13,20.9,5.6,–,3.26,0.658,2.3,1.52,47,2.59,1.54,–,5.24,0.853,2.3,1.93
O=C(CC(=O)N1N=C(c2ccccc2)C(N=Nc2ccc(C(=O)O)cc2)C1=O)Nc1ccc(F)cc1 (stereo not drawn),> 100,> 100,> 100,77.1,> 100,> 100,54.5,> 100,–,–,–,–,–,–,–,–,–,–,–,–
Cc1nc(C)c(C(=O)Nc2cccc3c2C(=O)NC3=O)cc1C(=O)Nc1cccc2c1C(=O)NC2=O,> 100,> 100,> 100,> 100,> 100,> 100,> 100,> 100,–,–,–,–,–,–,–,–,–,–,–,–
N/C(=N\NS(=O)(=O)c1ccccc1)Oc1ccc(Cl)cc1,> 100,> 100,> 100,> 100,> 100,> 100,> 100,> 100,–,–,–,–,–,–,–,–,–,–,–,–
COc1ccc(SC2c3cc(OC)c(OC)cc3Oc3nc(N)c(C#N)c(N)c32)cc1 (stereo not drawn),3.32,3.18,–,3.34,5.04,3.07,2.68,2.65,1.87,–,1.74,0.454,2.1,1.55,1.38,1.21,2.81,1.69,2.16,1.43
Nc1[nH]c(=O)ncc1F,> 100,> 100,> 100,> 100,> 100,> 100,> 100,> 100,–,–,–,–,> 100,–,–,–,–,–,–,–
O=C(c1cc(O)ccc1O)c1ccccc1C(Cl)(Cl)Cl,> 100,> 100,> 100,> 100,> 100,> 100,> 100,> 100,–,–,–,–,–,–,–,–,–,–,–,–
COc1ccc(C2OC(=O)c3c2ccc2ccccc32)c(C)c1 (stereo not drawn),80.5,> 100,> 100,> 100,> 100,–,–,> 100,–,–,–,–,10.1,–,–,–,> 100,–,–,–
N#Cc1cccc(NC(=O)c2ccc(C(=O)O)c(C(=O)c3ccc(C(=O)O)c(C(=O)Nc4cccc(C#N)c4)c3)c2)c1,> 100,> 100,> 100,> 100,> 100,> 100,> 100,> 100,–,–,–,–,–,–,–,–,–,–,–,–
C=C(CN1CCN(c2ccccc2OC)CC1)c1ccc(C(=O)Nc2ccccc2N)cc1,–,32.4,> 50,> 50,–,36,23.7,> 50,–,> 50,10.6,16.7,> 50,12.2,2.18,12.1,4.4,9.28,–,0.315
